The values that follow come from article PMC6832920, “Synthesis, Docking Studies, and In Vitro Evaluation of Some Novel Thienopyridines and Fused Thienopyridine–Quinolines as Antibacterial Agents and DNA Gyrase Inhibitors” (Molecules, 2019).

In brackets after ≈: the same amount, converted by molar mass.

For data set [1], the system named is Escherichia coli 8739. Description: MIC determination by dilution procedure. Format: cell-based. Particulars: E. coli 8739, dilutions 125-1.95 μg/mL, read-out: minimum inhibitory concentration (MIC).
In data set [2] the test system is methicillin-resistant Staphylococcus aureus (MRSA). Description: inhibition zones against MRSA (disc diffusion). Format: cell-based.
Data set [3] relates to Bacillus cereus 33018. The data set is described as follows: MIC determination by dilution procedure. The data set is classed as cell-based. Particulars: B. cereus 33018, dilutions 125-1.95 μg/mL, read-out: minimum inhibitory concentration (MIC).
Description: (§1) A 100 μL measure of NB containing each test microorganism was added to the sterile Petri dishes. Antibacterial testing was carried out on all compounds (3a,b–14) using the agar disc-diffusion method [40]. Sterile nutrients were inoculated with 100 μL cell suspension of the chosen test microorganism and poured into Petri dishes (20 cm diameter). Filter paper discs (Whatman, No.3, diameter 5 mm) were loaded with 10 μL containing 100 μg of the tested compounds, as well as the standard drug. Composite compound disks were placed on the surface of inoculated agar plates and kept at low temperatures before incubation in order to support the swelling and diffusion of the microbial growth. The plates were incubated at 37 °C in the incubator. Experiments were performed in duplicate and the diameters of inhibition zones were measured after 24 h. A diameter of inhibition zone (DIZ) assay was performed to evaluate the antimicrobial potential of the compounds against the tested organisms compared with reference antibiotics.
In data set [4] the test system is Salmonella typhimurium 14028. The data set is described as follows: agar disc-diffusion antibacterial assay. To be noted: Salmonella enterica; S. typhimurium 14028; disc loaded with 100 μg; 37 °C, 24 h; read-out: diameter of inhibition zone. Format: cell-based. (In general: In agar diffusion tests the substance spreads into inoculated agar from a disc or well.)
Description: (§2) The clinical control strains of Gram-negative bacteria (Escherichia coli 8739, Salmonella typhimurium 14028, Pseudomonas aeruginosa 27853) and Gram-positive bacteria (Bacillus subtilis 6633, Bacillus cereus 33018, Staphylococcus aureus 25923), were obtained from microbial inoculums by subculturing microorganisms into nutrient broth (NB) at 37 °C for 18 h, and were adjusted to 0.125 A° at 625 nm (equivalent to a McFarland 0.5) in 2-fold NB. A 100 μL measure of NB containing each test microorganism was added to the sterile Petri dishes. Antibacterial testing was carried out on all compounds (3a,b–14) using the agar disc-diffusion method [40]. Sterile nutrients were inoculated with 100 μL cell suspension of the chosen test microorganism and poured into Petri dishes (20 cm diameter). Filter paper discs (Whatman, No.3, diameter 5 mm) were loaded with 10 μL containing 100 μg of the tested compounds, as well as the standard drug. Composite compound disks were placed on the surface of inoculated agar plates and kept at low temperatures before incubation in order to support the swelling and diffusion of the microbial growth. The plates were incubated at 37 °C in the incubator. Experiments were performed in duplicate and the diameters of inhibition zones were measured after 24 h.
The test system of data set [5] is Staphylococcus aureus 25923. The data set is described as follows: agar disc-diffusion antibacterial assay. The data set is classed as cell-based. Particulars: S. aureus 25923, disc loaded with 100 μg, 37 °C, 24 h, read-out: diameter of inhibition zone.
Description: (§3) The clinical control strains of Gram-negative bacteria (Escherichia coli 8739, Salmonella typhimurium 14028, Pseudomonas aeruginosa 27853) and Gram-positive bacteria (Bacillus subtilis 6633, Bacillus cereus 33018, Staphylococcus aureus 25923), were obtained from microbial inoculums by subculturing microorganisms into nutrient broth (NB) at 37 °C for 18 h, and were adjusted to 0.125 A° at 625 nm (equivalent to a McFarland 0.5) in 2-fold NB. A 100 μL measure of NB containing each test microorganism was added to the sterile Petri dishes. Antibacterial testing was carried out on all compounds (3a,b–14) using the agar disc-diffusion method [40]. Sterile nutrients were inoculated with 100 μL cell suspension of the chosen test microorganism and poured into Petri dishes (20 cm diameter). Filter paper discs (Whatman, No.3, diameter 5 mm) were loaded with 10 μL containing 100 μg of the tested compounds, as well as the standard drug. Composite compound disks were placed on the surface of inoculated agar plates and kept at low temperatures before incubation in order to support the swelling and diffusion of the microbial growth. The plates were incubated at 37 °C in the incubator. Experiments were performed in duplicate and the diameters of inhibition zones were measured after 24 h. A diameter of inhibition zone (DIZ) assay was performed to evaluate the antimicrobial potential of the compounds against the tested organisms compared with reference antibiotics.
For data set [6], the system named is Bacillus subtilis 6633. Description: agar disc-diffusion antibacterial assay. The data set is classed as cell-based. Particulars: B. subtilis 6633, disc loaded with 100 μg, 37 °C, 24 h, read-out: diameter of inhibition zone.
Description: as §1
Data set [7] has as its system Staphylococcus aureus 25923. Description: MIC determination by dilution procedure. The data set is classed as cell-based. To be noted: Staphylococcus aureus, 25923, S. aureus 25923; dilutions 125-1.95 μg/mL; read-out: minimum inhibitory concentration (MIC).
Description: as §1
Data set [8] deals with Escherichia coli 8739. The data set is described as follows: agar disc-diffusion antibacterial assay. Particulars: E. coli 8739, disc loaded with 100 μg, 37 °C, 24 h, read-out: diameter of inhibition zone. Format: cell-based.
Description: as §3
Data set [9] deals with Bacillus subtilis 6633. Description: MIC determination by dilution procedure. Format: cell-based. To be noted: B. subtilis 6633, dilutions 125-1.95 μg/mL, read-out: minimum inhibitory concentration (MIC).
Description: as §1
Data set [10] concerns Salmonella typhimurium 14028. Description: MIC determination by dilution procedure. Format: cell-based. Particulars: Salmonella enterica; S. typhimurium 14028; dilutions 125-1.95 μg/mL; read-out: minimum inhibitory concentration (MIC).
Description: as §2
The subject of data set [11] is Pseudomonas aeruginosa 27853. Description: MIC determination by dilution procedure. Format: cell-based. To be noted: Pseudomonas aeruginosa, 27853, P. aeruginosa 27853; dilutions 125-1.95 μg/mL; read-out: minimum inhibitory concentration (MIC).
The next data set deals with T1, DNA gyrase from E. coli (Escherichia coli, UniProt P0AES6).
T1 construct: purchased TopoGEN
Description: Escherichia coli DNA gyrase supercoiling inhibition assay. The data set is classed as biochemical.

Data set [12] concerns Bacillus cereus 33018. The data set is described as follows: agar disc-diffusion antibacterial assay. Format: cell-based. Particulars: B. cereus 33018, disc loaded with 100 μg, 37 °C, 24 h, read-out: diameter of inhibition zone.
Description: as §1
The subject of data set [13] is Pseudomonas aeruginosa 27853. Description: agar disc-diffusion antibacterial assay. Format: cell-based. To be noted: P. aeruginosa 27853, disc loaded with 100 μg, 37 °C, 24 h, read-out: diameter of inhibition zone.
Description: as §3

What is called zone of inhibition is the extent of the growth-free halo in a diffusion test. In general, melting point refers to the temperature, or range, at which the solid turns liquid. By IC50 is commonly meant the concentration that gives 50% inhibition. Lower therefore signals greater potency in that assay. `COc1ccc(-c2cc(-c3ccco3)nc3sc4c(NC(=O)CN5CCN(C)CC5)c5c(nc4c23)CCCC5)cc1` [Compound 9b, N-(2-(furan-2-yl)-4-(4-methoxyphenyl)-6,7,8,9-tetrahydropyrido[3′,2′:4,5]thieno[3,2-b]quinolin-10-yl)-2-(4-methylpiperazin-1-yl)acetamide] showed a melting point of 158 to 159 °C. Also, the MIC in the data set with Escherichia coli 8739 [1] is 15.6 µg/mL (≈ 27.5 µM). In addition, the “zone of inhibition against MRSA” value in [2] amounted to 14 mm. In the data set with Bacillus cereus 33018 [3], the MIC is 15.6 µg/mL (≈ 27.5 µM). The zone of inhibition at 100 µg/disc in data set [4] amounted to 19 mm. In addition, the zone of inhibition at 100 µg/disc in data set [5] amounted to 16 mm. Besides, in the data set with Bacillus subtilis 6633 [6], the zone of inhibition at 100 µg/disc was determined as 15 mm. In data set [7], the MIC came to 15.6 µg/mL (≈ 27.5 µM). Also, the zone of inhibition at 100 µg/disc with Escherichia coli 8739 [8] is 20 mm. For the same compound, in the data set with Bacillus subtilis 6633 [9], the MIC is 15.6 µg/mL (≈ 27.5 µM). Moreover, in [10], the MIC was determined as 15.6 µg/mL (≈ 27.5 µM). The MIC in data set [11] turned out to be 15.6 µg/mL (≈ 27.5 µM). Also, half-maximal inhibition at DNA gyrase from E. coli (IC50) was put at 5.78 ± 0.46 µM. The zone of inhibition at 100 µg/disc in the data set with Bacillus cereus 33018 [12] came to 18 mm. In [13], the zone of inhibition at 100 µg/disc was found to be 18 mm.
Take `COc1ccc(-c2cc(-c3ccco3)nc3sc(C(N)=O)c(N=C4CCCCC4)c23)cc1` [Compound 4a, 3-(Cyclohexylideneamino)-6-(furan-2-yl)-4-(4-methoxyphenyl)thieno[2,3-b]pyridine-2-carboxamide]: the MIC came to 15.6 µg/mL (≈ 35.1 µM) with Escherichia coli 8739 [1]; 15.6 µg/mL (≈ 35.1 µM) with Bacillus cereus 33018 [3]; 15.6 µg/mL (≈ 35.1 µM) in data set [7]; 15.6 µg/mL (≈ 35.1 µM) in the data set on Bacillus subtilis 6633 [9]; 15.6 µg/mL (≈ 35.1 µM) in data set [10]; 31.2 µg/mL (≈ 70.1 µM) in [11]. Also, the “zone of inhibition against MRSA” value in data set [2] was 13 mm. Moreover, the zone of inhibition at 100 µg/disc amounted to 15 mm in data set [4]; 18 mm in [5]; 15 mm with Bacillus subtilis 6633 [6]; 18 mm with Escherichia coli 8739 [8]; 16 mm in the data set with Bacillus cereus 33018 [12]; 13 mm in [13]. On DNA gyrase from E. coli, inhibition was half-maximal at 3.69 ± 0.15 µM (IC50).
For the compound `CNC(C)C1CCC(N)C(OC2C(N)CC(N)C(OC3OCC(C)(O)C(NC)C3O)C2O)O1` (stereo not shown) [Gentamicin, gentamicin, reference compound], the “zone of inhibition against MRSA” value in data set [2] was found to be 15 mm.
In turn, `CC1=NN=C(Nc2c3c(nc4c2sc2nc(-c5ccco5)cc(-c5cccs5)c24)CCCC3)C1` [Compound 14, 2-(furan-2-yl)-N-(5-methyl-4H-pyrazol-3-yl) -4-(thiophen-2-yl)-6,7,8,9-tetrahydropyrido[3′,2′:4,5]thieno[3,2-b]quinolin-10-amine] registered a melting point of 274 °C. Also, the MIC in the data set on Escherichia coli 8739 [1] turned out to be 15.6 µg/mL (≈ 32.3 µM). Also, the MIC with Bacillus cereus 33018 [3] was 15.6 µg/mL (≈ 32.3 µM). Moreover, the zone of inhibition at 100 µg/disc in data set [4] came to 12 mm. Also, the zone of inhibition at 100 µg/disc in data set [5] is 13 mm. For the same compound, the zone of inhibition at 100 µg/disc with Bacillus subtilis 6633 [6] turned out to be 16 mm. The MIC in data set [7] came out at 31.2 µg/mL (≈ 64.6 µM). For the same compound, the zone of inhibition at 100 µg/disc in the data set with Escherichia coli 8739 [8] was 15 mm. Besides, the MIC in the data set with Bacillus subtilis 6633 [9] was 15.6 µg/mL (≈ 32.3 µM). The MIC in [10] came out at 31.2 µg/mL (≈ 64.6 µM). Also, in [11], the MIC came to 31.2 µg/mL (≈ 64.6 µM). The same compound showed an IC50 at DNA gyrase from E. coli of 11.7 ± 0.93 µM. The zone of inhibition at 100 µg/disc with Bacillus cereus 33018 [12] came to 17 mm. Further, in [13], the zone of inhibition at 100 µg/disc turned out to be 10 mm.
On to `NC(=O)c1sc2nc(-c3ccco3)cc(-c3cccs3)c2c1N` [Compound 3b, 3-Amino-6-(furan-2-yl)-4-(thiophen-2-yl)thieno[2,3-b]pyridine-2-carboxamide], for which the melting point amounted to 253 °C. The MIC in the data set on Escherichia coli 8739 [1] amounted to 15.6 µg/mL (≈ 45.8 µM). For the same compound, the MIC in the data set on Bacillus cereus 33018 [3] turned out to be 15.6 µg/mL (≈ 45.8 µM). In addition, the zone of inhibition at 100 µg/disc in data set [4] stood at 18 mm. Further, the zone of inhibition at 100 µg/disc in data set [5] is 13 mm. In addition, the zone of inhibition at 100 µg/disc in the data set with Bacillus subtilis 6633 [6] is 12 mm. Moreover, the MIC in [7] amounted to 31.2 µg/mL (≈ 91.5 µM). In addition, the zone of inhibition at 100 µg/disc in the data set on Escherichia coli 8739 [8] is 19 mm. The MIC in the data set with Bacillus subtilis 6633 [9] came to 31.2 µg/mL (≈ 91.5 µM). Besides, the MIC in data set [10] came out at 15.6 µg/mL (≈ 45.8 µM). Besides, the MIC in data set [11] amounted to 31.2 µg/mL (≈ 91.5 µM). Moreover, at DNA gyrase from E. coli, it took 4.5 ± 0.32 µM to reach half-maximal inhibition (IC50). Further, the zone of inhibition at 100 µg/disc in the data set on Bacillus cereus 33018 [12] stood at 18 mm. The zone of inhibition at 100 µg/disc in data set [13] came out at 13 mm.
Take `COc1ccc(-c2cc(-c3ccco3)nc3sc4c(N=Cc5cccs5)c5c(nc4c23)CCCC5)cc1` [Compound 12b, N-(2-(furan-2-yl)-4-(4-methoxyphenyl)-6,7,8,9-tetrahydropyrido[3′,2′:4,5]thieno[3,2-b]quinolin-10-yl)-1-(thiophen-2-yl)methanimine]: the melting point is 114 °C. Also, the MIC with Escherichia coli 8739 [1] came out at 15.6 µg/mL (≈ 30 µM). Further, the “zone of inhibition against MRSA” value in data set [2] worked out at 15 mm. Also, the MIC in the data set with Bacillus cereus 33018 [3] amounted to 15.6 µg/mL (≈ 30 µM). Moreover, the zone of inhibition at 100 µg/disc in data set [4] came to 16 mm. Further, the zone of inhibition at 100 µg/disc in data set [5] was 16 mm. For the same compound, the zone of inhibition at 100 µg/disc with Bacillus subtilis 6633 [6] was found to be 15 mm. Besides, the MIC in [7] was determined as 15.6 µg/mL (≈ 30 µM). Further, the zone of inhibition at 100 µg/disc with Escherichia coli 8739 [8] is 18 mm. In addition, the MIC in the data set on Bacillus subtilis 6633 [9] amounted to 15.6 µg/mL (≈ 30 µM). Also, the MIC in data set [10] came to 15.6 µg/mL (≈ 30 µM). The MIC in data set [11] is 15.6 µg/mL (≈ 30 µM). In addition, the IC50 on DNA gyrase from E. coli worked out at 4.6 ± 0.28 µM. Further, the zone of inhibition at 100 µg/disc with Bacillus cereus 33018 [12] worked out at 15 mm. The zone of inhibition at 100 µg/disc in data set [13] amounted to 16 mm.
Compound `COc1ccc(-c2cc(-c3ccco3)nc3sc4c(NC(=O)CNN)c5c(nc4c23)CCCC5)cc1` [Compound 7a, N-(2-(furan-2-yl)-4-(4-methoxyphenyl)-6,7,8,9-tetrahydropyrido[3′,2′:4,5]thieno[3,2-b]quinolin-10-yl)-2-hydrazinylacetamide] registered a melting point of 278 °C. Besides, the MIC in the data set on Escherichia coli 8739 [1] came to 15.6 µg/mL (≈ 31.3 µM). In addition, the “zone of inhibition against MRSA” value in data set [2] is 18 mm. In addition, the MIC in the data set on Bacillus cereus 33018 [3] came to 15.6 µg/mL (≈ 31.3 µM). In [4], the zone of inhibition at 100 µg/disc was determined as 11 mm. Also, in data set [5], the zone of inhibition at 100 µg/disc is 19 mm. Further, the zone of inhibition at 100 µg/disc in the data set on Bacillus subtilis 6633 [6] worked out at 17 mm. Moreover, in [7], the MIC came out at 15.6 µg/mL (≈ 31.3 µM). Moreover, the zone of inhibition at 100 µg/disc in the data set with Escherichia coli 8739 [8] amounted to 16 mm. For the same compound, the MIC with Bacillus subtilis 6633 [9] is 15.6 µg/mL (≈ 31.3 µM). In [10], the MIC came out at 31.2 µg/mL (≈ 62.6 µM). For the same compound, in data set [11], the MIC was determined as 31.2 µg/mL (≈ 62.6 µM). Moreover, the IC50 at DNA gyrase from E. coli worked out at 8.66 ± 0.61 µM. Further, the zone of inhibition at 100 µg/disc in the data set with Bacillus cereus 33018 [12] turned out to be 15 mm. In addition, the zone of inhibition at 100 µg/disc in data set [13] stood at 11 mm.
